In patent publication US4681970A, “Bicyclo-substituted phenylacetonitrile derivatives” (G. D. Searle & Co., priority 1986, dated 1987):
Structures can show the parent of a compound that is named as a salt.

Experiments:
[1] = test system: spontaneously hypertensive rats (SHR); conditions: clinically useful reference agents; cited from earlier work
[2] = test system: atrial-ventricular conduction; conditions: compared with verapamil or diltiazem
anesthetized beagle dogs = assay: Antihypertensive effect in anesthetized beagle dogs, i.v.; format: in vivo, beagle dog; conditions: for maximum hypotensive effect: compounds of the invention, verapamil and diltiazem compared
[3] = biological target: T1, Isolated thoracic aortic rings from the male SHR (Rattus norvegicus, UniProt P22002); assay: Calcium antagonism in vascular smooth muscle (isolated thoracic aortic rings from male SHR); format: cell-based; conditions: read-out: pA2 Ca^++ Antagonism (converted)
T1 sequence (P22002 whole entry): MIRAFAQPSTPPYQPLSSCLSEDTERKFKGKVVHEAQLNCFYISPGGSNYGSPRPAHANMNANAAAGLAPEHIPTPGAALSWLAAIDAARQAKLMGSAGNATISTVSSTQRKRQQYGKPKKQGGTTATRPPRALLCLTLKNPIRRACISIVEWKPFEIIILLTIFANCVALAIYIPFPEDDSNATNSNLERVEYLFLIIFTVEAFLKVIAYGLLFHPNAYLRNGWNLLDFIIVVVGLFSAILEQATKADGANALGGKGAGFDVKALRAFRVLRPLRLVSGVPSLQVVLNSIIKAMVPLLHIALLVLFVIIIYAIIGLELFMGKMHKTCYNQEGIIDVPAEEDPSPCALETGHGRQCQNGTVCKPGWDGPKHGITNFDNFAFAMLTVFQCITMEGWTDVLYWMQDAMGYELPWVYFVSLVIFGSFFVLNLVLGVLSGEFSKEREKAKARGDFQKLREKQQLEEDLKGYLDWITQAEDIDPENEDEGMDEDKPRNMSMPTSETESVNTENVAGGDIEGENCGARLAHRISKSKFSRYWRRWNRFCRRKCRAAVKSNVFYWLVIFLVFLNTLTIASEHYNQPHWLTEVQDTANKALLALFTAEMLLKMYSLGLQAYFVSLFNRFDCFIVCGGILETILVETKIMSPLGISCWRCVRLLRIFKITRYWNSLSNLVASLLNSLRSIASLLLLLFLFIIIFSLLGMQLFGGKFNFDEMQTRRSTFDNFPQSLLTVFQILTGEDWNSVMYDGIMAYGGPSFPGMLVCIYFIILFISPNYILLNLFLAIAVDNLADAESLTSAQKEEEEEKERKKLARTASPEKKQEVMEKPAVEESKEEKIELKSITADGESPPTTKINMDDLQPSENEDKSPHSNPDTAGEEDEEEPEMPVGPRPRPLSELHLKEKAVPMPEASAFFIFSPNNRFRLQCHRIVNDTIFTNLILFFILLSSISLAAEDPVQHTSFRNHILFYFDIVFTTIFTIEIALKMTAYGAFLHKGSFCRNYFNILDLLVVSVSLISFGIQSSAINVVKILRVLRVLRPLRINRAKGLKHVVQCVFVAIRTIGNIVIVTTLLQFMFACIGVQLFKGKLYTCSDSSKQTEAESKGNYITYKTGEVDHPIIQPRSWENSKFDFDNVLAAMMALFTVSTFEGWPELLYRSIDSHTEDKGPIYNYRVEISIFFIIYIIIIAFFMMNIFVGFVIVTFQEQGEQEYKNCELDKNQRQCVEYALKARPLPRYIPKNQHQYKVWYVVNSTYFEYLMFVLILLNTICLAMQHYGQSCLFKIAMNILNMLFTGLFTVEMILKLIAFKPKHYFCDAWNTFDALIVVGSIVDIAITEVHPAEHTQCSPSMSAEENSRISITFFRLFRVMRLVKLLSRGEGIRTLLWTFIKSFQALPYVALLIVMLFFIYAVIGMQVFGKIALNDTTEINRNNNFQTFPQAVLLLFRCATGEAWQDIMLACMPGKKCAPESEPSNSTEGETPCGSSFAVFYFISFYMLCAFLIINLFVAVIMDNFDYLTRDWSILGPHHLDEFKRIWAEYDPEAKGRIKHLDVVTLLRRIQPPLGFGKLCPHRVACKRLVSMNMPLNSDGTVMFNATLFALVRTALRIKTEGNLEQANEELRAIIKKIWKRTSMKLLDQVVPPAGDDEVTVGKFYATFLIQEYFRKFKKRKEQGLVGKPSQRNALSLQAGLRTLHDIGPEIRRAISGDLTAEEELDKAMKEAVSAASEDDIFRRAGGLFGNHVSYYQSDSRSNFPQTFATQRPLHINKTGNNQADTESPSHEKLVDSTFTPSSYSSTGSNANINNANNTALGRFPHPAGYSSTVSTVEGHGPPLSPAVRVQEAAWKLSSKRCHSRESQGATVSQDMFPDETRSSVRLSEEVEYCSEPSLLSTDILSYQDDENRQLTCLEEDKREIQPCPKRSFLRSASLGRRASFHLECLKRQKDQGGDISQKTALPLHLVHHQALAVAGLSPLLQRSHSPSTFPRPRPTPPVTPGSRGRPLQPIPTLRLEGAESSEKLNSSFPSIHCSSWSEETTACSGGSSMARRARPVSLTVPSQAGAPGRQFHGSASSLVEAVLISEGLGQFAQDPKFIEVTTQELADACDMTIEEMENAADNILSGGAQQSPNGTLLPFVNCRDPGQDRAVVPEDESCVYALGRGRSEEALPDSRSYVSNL
T1 sequence (P54290 25-944 partner limits assumed): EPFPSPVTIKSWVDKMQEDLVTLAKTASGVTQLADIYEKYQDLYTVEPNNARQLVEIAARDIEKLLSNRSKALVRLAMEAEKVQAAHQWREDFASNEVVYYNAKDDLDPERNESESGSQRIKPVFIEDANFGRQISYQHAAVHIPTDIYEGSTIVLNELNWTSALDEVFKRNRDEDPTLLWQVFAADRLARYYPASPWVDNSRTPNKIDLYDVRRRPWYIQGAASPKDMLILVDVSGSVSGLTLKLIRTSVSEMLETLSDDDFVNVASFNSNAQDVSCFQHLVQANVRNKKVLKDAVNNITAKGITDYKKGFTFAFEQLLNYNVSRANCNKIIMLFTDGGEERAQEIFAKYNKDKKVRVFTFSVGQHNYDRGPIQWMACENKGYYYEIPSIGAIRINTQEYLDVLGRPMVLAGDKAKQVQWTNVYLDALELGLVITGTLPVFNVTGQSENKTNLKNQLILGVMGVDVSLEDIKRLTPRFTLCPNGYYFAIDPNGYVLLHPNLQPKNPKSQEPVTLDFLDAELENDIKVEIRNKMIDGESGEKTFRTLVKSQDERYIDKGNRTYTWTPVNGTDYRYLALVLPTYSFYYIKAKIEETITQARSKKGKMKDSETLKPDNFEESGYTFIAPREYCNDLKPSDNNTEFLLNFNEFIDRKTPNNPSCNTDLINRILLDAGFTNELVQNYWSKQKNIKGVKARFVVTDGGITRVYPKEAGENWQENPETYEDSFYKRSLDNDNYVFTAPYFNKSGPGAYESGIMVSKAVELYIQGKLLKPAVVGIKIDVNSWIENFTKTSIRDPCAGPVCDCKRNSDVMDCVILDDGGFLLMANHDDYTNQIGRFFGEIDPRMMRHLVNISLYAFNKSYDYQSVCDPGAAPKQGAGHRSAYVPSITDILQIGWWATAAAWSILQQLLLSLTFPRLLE
T1 sequence (P54290 945-1091 partner limits assumed): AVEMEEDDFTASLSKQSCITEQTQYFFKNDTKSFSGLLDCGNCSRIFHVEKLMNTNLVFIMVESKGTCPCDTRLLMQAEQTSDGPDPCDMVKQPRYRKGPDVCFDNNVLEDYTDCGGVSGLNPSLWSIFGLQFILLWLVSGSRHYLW
Protocol: Isolated thoracic aortic rings from the male SHR were utilized in this test procedure.
The excised aortic ring was mounted in a tissue bath containing modified Kreb's solution. After depolarization of the tissue with potassium chloride (100 mM), calcium in cumulative concentrations of 1×10^-3 M, 3.2×10^-3 M, and 1×10^-2 M was injected into the bath to produce vascular smooth muscle contraction. The developed tension (in grams) was measured and control dose-response values obtained. After one hour of incubation with a test compound at 1×10^-6 M concentration, the same doses of calcium ions were repeated. The log dose-response curves of the control and after treatment were analyzed by linear regression. The pA2 value was calculated as a measure of calcium antagonism of the test compound. See Van Rossum, J. M., Arch. Int. Pharmacodyn, 143, 299-330, 1963.
Calcium ions play an essential role in induction and maintenance of vascular smooth muscle contractility. In potassium depolarized vascular smooth muscle, calcium antagonists may block the entry of calcium ions into the cell or act by other mechanisms to inhibit the contractions induced by calcium ions. The inhibition of calcium ion--induced contraction of vascular smooth muscle is used to test compounds for vascular calcium antagonism. Cardiovascular diseases such as arrhythmias, angina-pectoris, hypertension, and peripheral vascular disease may be causally related to abnormalities in cellular handling of calcium ions.

[4] = test system: spontaneously hypertensive rats (SHR); assay: Antihypertensive activity in unanesthetized spontaneously hypertensive rats (SHR); format: in vivo, rat; conditions: for duration of antihypertensive effect: oral
Protocol: The test procedures employed to measure these activities are described below.
Male, unanesthetized spontaneously hypertensive rats (SHR), 11 to 16 weeks old were used in this test procedure. […]
Initial mean arterial blood pressure was measured directly via a previously implanted arterial catheter immediately before administration of the test compound. Blood pressure readings were made at hourly intervals, 24 hours per day, for 3 days following oral administration of the test compound and at 5, 10, and 15 minutes following intravenous administration. […] Statistical comparisons were made using the analysis of variance test with two sided probability calculations.

[5] = biological target: T1, Isolated thoracic aortic rings from the male SHR; conditions: reference drugs, potassium depolarized vascular smooth muscle; cited from earlier work
[6] = compared with verapamil hydrochloride; cited from earlier work
[7] = ratio of the dose required to slow or block atrial-ventricular conduction to the dose required to lower arterial pressure by 20 mmHg
[8] = ratio of the dose to decrease heart rate to the dose to lower arterial pressure
[9] = SHR, 10 mg/kg/day for three days
[10] = conscious SHR, 50 mg/kg/day for three days

## NNc1nncc2ccccc12 [Apresoline]
[1]
  active in the hypertensive rat assay: active

## COc1ccc(C(C#N)(CCCN(C)C2CCc3ccccc3C2)C(C)C)cc1OC.O=C(O)CC(O)(CC(=O)O)C(=O)O (stereo not drawn) [Example 8, 3,4-dimethoxy-α-(1-methylethyl)-α-[3-[N-methyl-N-(1,2,3,4-tetrahydro-2-naphthalenyl)amino]propyl]phenylacetonitrile, citrate (1:1)]
[2]
  therapeutic ratio for atrial-ventricular block and bradycardia: more favorable therapeutic ratio for atrial-ventricular block and bradycardia than verapamil or diltiazem
Anesthetized beagle dogs; compared to verapamil and diltiazem
  slope of the dose-blood pressure response curve: not as steep
[3]
  Kb: 50.1 nM
In vivo; [7]
  selectivity ratio: 4
In vivo; [8]
  selectivity ratio: 3.1
[4]; [9]
  duration of antihypertensive effect: approximately 12 hours
[4]; [10]
  duration of antihypertensive effect: > 24 h
[4]; 0.1 mg/kg
  SHR -mmHg intravenous (mg/kg): -30 mmHg

## COc1ccc(C(C#N)(CCCN(C)C2CCc3c(cccc3OC)C2)C(C)C)cc1OC.O=C(O)CC(O)(CC(=O)O)C(=O)O (stereo not drawn) [Example 11, 3,4-dimethoxy-α-(1-methylethyl)-α-[3-[N-methyl-N-(1,2,3,4-tetrahydro-5-methoxy-2-naphthalenyl)amino]propyl]phenylacetonitrile, citrate (1:1)]
[3]
  Kb: 50.1 nM
[4]; 1.0 mg/kg
  SHR -mmHg intravenous (mg/kg): -29 mmHg

## COC(=O)C1=C(C)NC(C)=C(C(=O)OC)C1c1ccccc1[N+](=O)[O-] [nifedipine]
[5]
  active in vascular calcium antagonism test: active

## COc1ccc(C(C#N)(CCCN(C)C2CCc3cc(OC)c(OC)cc3C2)C(C)C)cc1OC.O=C(O)CC(O)(CC(=O)O)C(=O)O (stereo not drawn) [Example 9, 3,4-dimethoxy-α-(1-methylethyl)-α-[3-[N-methyl-N-(1,2,3,4-tetrahydro-6,7-dimethoxy-2-naphthalenyl)amino]propyl]phenylacetonitrile, citrate (1:1)]
[3]
  Kb: 126 nM
[4]; 3.0 mg/kg
  SHR -mmHg intravenous (mg/kg): -30 mmHg

## C[C@](N)(Cc1ccc(O)c(O)c1)C(=O)O [Aldomet]
[1]
  active in the hypertensive rat assay: active

## COc1ccc([C@@H]2Sc3ccccc3N(CCN(C)C)C(=O)[C@@H]2OC(C)=O)cc1 [diltiazem, reference compound]
[5]
  active in vascular calcium antagonism test: active
Anesthetized beagle dogs
  maximum hypotensive effect: approximately the same maximum hypotensive effect
In vivo; [7]
  selectivity ratio: 0.53
In vivo; [8]
  selectivity ratio: 0.53

## CCCCCCCCCCCCC(C#N)(CCCN(C)CCc1cccc(OC)c1)c1cccc(OC)c1 (stereo not drawn) [Anipamil, 2-(3-methoxyphenyl)-2[3-[N-[2-(3-methoxyphenyl)ethyl]methylamino]propyl]tetradecanenitrile]
[6]
  calcium ion antagonist activity: calcium ion antagonist activity analogous to verapamil hydrochloride

## C[C@H](CS)C(=O)N1CCC[C@H]1C(=O)O [Captopril]
[1]
  active in the hypertensive rat assay: active

## COc1ccc2c(c1)CC(N(C)CCCC(C#N)(c1ccc(OC)c(OC)c1)C(C)C)CC2.O=C(O)CC(O)(CC(=O)O)C(=O)O (stereo not drawn) [Example 12, 3,4-dimethoxy-α-(1-methylethyl)-α-[3-[N-methyl-N-(1,2,3,4-tetrahydro-7-methoxy-2-naphthalenyl)amino]propyl]phenylacetonitrile, citrate (1:1)]
[3]
  Kb: 39.8 nM
[4]; 1.0 mg/kg
  SHR -mmHg intravenous (mg/kg): -20 mmHg

## COc1ccc2c(c1)CCC(N(C)CCCC(C#N)(c1ccc(OC)c(OC)c1)C(C)C)C2.O=C(O)CC(O)(CC(=O)O)C(=O)O (stereo not drawn) [Example 10, 3,4-dimethoxy-α-(1-methylethyl)-α-[3-[N-methyl-N-(1,2,3,4-tetrahydro-6-methoxy-2-naphthalenyl)amino]propyl]phenylacetonitrile, citrate (1:1)]
[3]
  Kb: 25.1 nM
[4]; 3.0 mg/kg
  SHR -mmHg intravenous (mg/kg): -24 mmHg

## Clc1cccc(Cl)c1N=C1NCCN1 [Clonidine]
[1]
  active in the hypertensive rat assay: active

## COc1ccc(CCN(C)CCCC(C#N)(c2ccc(OC)c(OC)c2)C(C)C)cc1OC (stereo not drawn) [verapamil, α[3-[[2-(3,4-dimethoxyphenyl)ethyl]methylamino]propyl]-3,4-dimethoxy-α-(1-methylethyl)hydrochloride, reference compound]
Anesthetized beagle dogs
  maximum hypotensive effect: approximately the same maximum hypotensive effect
[4]; [9]
  duration of antihypertensive effect: 6 h
[4]; [10]
  duration of antihypertensive effect: 14 h
[4]; 0.3 mg/kg
  SHR -mmHg intravenous (mg/kg): -30 mmHg
